# The supplement of paper PMC11061612
# Tests used:
# Assay in all cases: combination Emax (second highest fraction inhibited in the dose matrix, 72 h); higher = more inhibition; extreme values may be limits of the assay
# [1] = tested on: WM793B (Melanoma)
# In short: (§1)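 Cell lines grown in DMEM/F12 or RPMI with 10% FBS were plated in 1536-well plates and held 24 hours at 37°C, 5% CO2 before 72 hours of exposure to two-drug dose matrices, with DMSO typically at 0.2%. CellTiter-Glo 2.0 luminescence gave viability, which was converted to inhibition. Vehicle wells were set to 0 and blank wells to 1. Combination Emax is the second-highest inhibition in the matrix, and Bliss excess is the observed combination effect minus the expected EA + EB − EA·EB, where EA and EB are the single-agent effects.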
# [2] = tested on: VAL (B-Cell Non-Hodgkin's Lymphoma)
# In short: as §1
# [3] = tested on: IST-MES1 (Mesothelioma)
# In short: as §1
# [4] = tested on: MKN45 (Gastric Carcinoma)
# In short: as §1
# [5] = tested on: OAW-42 (Ovarian Carcinoma)
# In short: as §1
# [6] = tested on: SF539 (Glioblastoma)
# In short: as §1
# [7] = tested on: PANC-03-27 (Pancreatic Carcinoma)
# In short: as §1
# [8] = tested on: GP5d (Colorectal Carcinoma)
# In short: as §1
# [9] = tested on: OVMIU (Ovarian Carcinoma)
# In short: as §1
# [10] = tested on: OPM-2 (Plasma Cell Myeloma)
# In short: as §1
# [11] = tested on: RCM-1 (Colorectal Carcinoma)
# In short: as §1
# [12] = tested on: NCI-H446 (Small Cell Lung Carcinoma)
# In short: as §1
# [13] = tested on: LK-2 (Squamous Cell Lung Carcinoma)
# In short: as §1
# [14] = tested on: PSN1 (Pancreatic Carcinoma)
# In short: as §1
# [15] = tested on: RKN (Other Solid Carcinomas)
# In short: as §1
# [16] = tested on: LXF-289 (Lung Adenocarcinoma)
# In short: as §1
# [17] = tested on: HCT-15 (Colorectal Carcinoma)
# In short: as §1
# [18] = tested on: SK-PN-DW (Other Solid Carcinomas)
# In short: as §1
# [19] = tested on: SHP-77 (Small Cell Lung Carcinoma)
# In short: as §1
# [20] = tested on: HEC-1 (Endometrial Carcinoma)
# In short: as §1
Compound,combination Emax [1],combination Emax [2],combination Emax [3],combination Emax [4],combination Emax [5],combination Emax [6],combination Emax [7],combination Emax [8],combination Emax [9],combination Emax [10],combination Emax [11],combination Emax [12],combination Emax [13],combination Emax [14],combination Emax [15],combination Emax [16],combination Emax [17],combination Emax [18],combination Emax [19],combination Emax [20]
"CN(C)CCCOc1ccc(-c2ccc3ncc4c(c3c2)n(C2CCOCC2)c(=O)n4C)cn1 [AZD0156] + O=C(c1cc(Cc2n[nH]c(=O)c3ccccc23)ccc1F)N1CCN(C(=O)C2CC2)CC1 [Olaparib] (first compound max 3 µM, partner max 3 µM)",0.197,0.542,0.212,0.356,0.282,0.501,0.225,0.297,0.347,0.231,0.287,0.362,0.372,0.228,0.214,0.4,0.378,0.289,0.209,0.139
"C=CCn1c(=O)c2cnc(Nc3ccc(N4CCN(C)CC4)cc3)nc2n1-c1cccc(C(C)(C)O)n1 [AZD1775] + C1CN(CCC1(C(=O)N[C@@H](CCO)C2=CC=C(C=C2)Cl)N)C3=NC=NC4=C3C=CN4 [Capivasertib] (first compound max 3 µM, partner max 3 µM)",0.606,0.841,0.292,0.741,0.467,0.967,0.771,0.973,0.749,0.967,0.628,0.972,0.941,0.763,0.762,0.836,0.896,0.783,0.885,0.615
"CN(CCO)CC[C@H](CSc1ccccc1)Nc1ccc(S(=O)(=O)NC(=O)c2ccc(N3CCC([C@@H](O)c4ccccc4-c4ccc(Cl)cc4)CC3)cc2)cc1S(=O)(=O)C(F)(F)F [AZD4320] + C=CCn1c(=O)c2cnc(Nc3ccc(N4CCN(C)CC4)cc3)nc2n1-c1cccc(C(C)(C)O)n1 [AZD1775] (first compound max 1 µM, partner max 1 µM)",0.622,1,0.461,0.826,0.496,0.978,0.985,0.782,0.976,0.955,0.717,0.963,0.992,0.592,0.315,0.638,0.456,0.898,0.65,0.456
"CN(CCO)CC[C@H](CSc1ccccc1)Nc1ccc(S(=O)(=O)NC(=O)c2ccc(N3CCC([C@@H](O)c4ccccc4-c4ccc(Cl)cc4)CC3)cc2)cc1S(=O)(=O)C(F)(F)F [AZD4320] + CCN(CCO)CCCOc1ccc2c(Nc3cc(CC(=O)Nc4cccc(F)c4)[nH]n3)ncnc2c1 [AZD2811] (first compound max 1 µM, 7x7, partner max 1 µM)",0.246,1,0.213,0.316,0.14,0.584,0.638,0.566,0.802,0.693,0.545,0.991,0.967,0.349,,0.471,0.135,0.719,0.65,0.494
"CN(CCO)CC[C@H](CSc1ccccc1)Nc1ccc(S(=O)(=O)NC(=O)c2ccc(N3CCC([C@@H](O)c4ccccc4-c4ccc(Cl)cc4)CC3)cc2)cc1S(=O)(=O)C(F)(F)F [AZD4320] + CN(C)CCCOc1ccc(-c2ccc3ncc4c(c3c2)n(C2CCOCC2)c(=O)n4C)cn1 [AZD0156] (first compound max 1 µM, 7x7, partner max 1 µM)",0.251,1,0.104,0.316,0.261,0.27,0.33,0.323,0.771,0.687,0.435,0.663,0.712,0.315,0.102,0.182,0.111,0.326,0.585,0.372
"CN(CCO)CC[C@H](CSc1ccccc1)Nc1ccc(S(=O)(=O)NC(=O)c2ccc(N3CCC([C@@H](O)c4ccccc4-c4ccc(Cl)cc4)CC3)cc2)cc1S(=O)(=O)C(F)(F)F [AZD4320] + C[C@@H]1COCCN1C2=NC(=NC(=C2)C3(CC3)[S@](=N)(=O)C)C4=C5C=CNC5=NC=C4 [AZD6738] (first compound max 1 µM, 7x7, partner max 10 µM)",0.844,1,0.296,0.8,0.748,0.959,0.926,0.859,0.824,0.927,0.862,0.941,0.769,0.453,0.242,0.689,0.756,0.947,0.662,0.613
"CN(CCO)CC[C@H](CSc1ccccc1)Nc1ccc(S(=O)(=O)NC(=O)c2ccc(N3CCC([C@@H](O)c4ccccc4-c4ccc(Cl)cc4)CC3)cc2)cc1S(=O)(=O)C(F)(F)F [AZD4320] + C[C@@H](Nc1cc(F)cc(F)c1)c1cc(C(=O)N(C)C)cc2c(=O)cc(N3CCOCC3)oc12 [AZD8186] (first compound max 1 µM, 7x7, partner max 3 µM)",0.531,1,0.325,0.345,0.414,0.373,0.564,0.644,0.534,0.589,0.532,0.811,0.794,0.487,0.314,0.348,0.187,0.757,0.53,0.392
"CN(CCO)CC[C@H](CSc1ccccc1)Nc1ccc(S(=O)(=O)NC(=O)c2ccc(N3CCC([C@@H](O)c4ccccc4-c4ccc(Cl)cc4)CC3)cc2)cc1S(=O)(=O)C(F)(F)F [AZD4320] + Cc1cc2ncnn2cc1Nc1ncc2c(n1)n(C1CCOCC1)c(=O)n2C [AZD7648] (first compound max 1 µM, 7x7, partner max 10 µM)",0.221,1,0.113,0.352,0.348,0.214,0.177,0.295,0.847,0.71,0.351,0.699,0.746,0.315,0.135,0.216,0.135,0.413,0.491,0.337
"CN(CCO)CC[C@H](CSc1ccccc1)Nc1ccc(S(=O)(=O)NC(=O)c2ccc(N3CCC([C@@H](O)c4ccccc4-c4ccc(Cl)cc4)CC3)cc2)cc1S(=O)(=O)C(F)(F)F [AZD4320] + Cn1cnc2c(F)c(Nc3ccc(Br)cc3Cl)c(C(=O)NOCCO)cc21 [Selumetinib] (first compound max 1 µM, 7x7, partner max 3 µM)",0.578,1,0.257,0.511,0.436,0.346,0.793,0.9,0.739,0.556,0.785,0.758,0.699,0.664,0.326,0.314,0.284,0.684,0.613,0.366
"COc1nnc2ccc(N3CCC(c4ccc(OCCN5CCN(C)C(=O)[C@H]5C)cc4)CC3)nn12 [AZD5153] + C=CCn1c(=O)c2cnc(Nc3ccc(N4CCN(C)CC4)cc3)nc2n1-c1cccc(C(C)(C)O)n1 [AZD1775] (first compound max 1 µM, partner max 1 µM)",0.636,0.792,0.576,0.696,0.615,0.944,0.604,0.848,0.86,1,0.667,0.962,0.929,0.54,0.527,0.813,0.739,0.762,0.66,0.827
"COc1nnc2ccc(N3CCC(c4ccc(OCCN5CCN(C)C(=O)[C@H]5C)cc4)CC3)nn12 [AZD5153] + CC1(C)CCC(CN2CCN(c3ccc(C(=O)NS(=O)(=O)c4ccc(NCC5CCOCC5)c([N+](=O)[O-])c4)c(Oc4cnc5[nH]ccc5c4)c3)CC2)=C(c2ccc(Cl)cc2)C1 [Venetoclax] (first compound max 1 µM, 7x7, partner max 1 µM)",0.523,0.996,0.591,0.566,0.35,0.604,0.255,0.682,0.666,1,0.557,0.858,0.396,0.334,0.485,0.646,0.724,0.482,0.405,0.602
